Measured values published in PubChem BioAssay (NCI).
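Where inhibition never reached the appropriate level, the endpoint shown equals the highest concentration tested. Otherwise, values were interpolated linearly from a five-concentration, 48-hour dose response in 96-well plates. Here, GI50 denotes the concentration required for 50% inhibition of growth. TGI marks complete inhibition of growth.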

What was measured:
Assay in all cases: inhibition of tumour cell growth, NCI panel, 48 h
COLO 205 colon = system: COLO 205 colon
HCT-15 colon = system: HCT-15 colon
OVCAR-3 ovarian = system: OVCAR-3 ovarian
OVCAR-5 ovarian = system: OVCAR-5 ovarian
U251 CNS = system: U251 CNS
UO-31 renal = system: UO-31 renal
NCI-H522 lung = system: NCI-H522 lung
RXF 393 renal = system: RXF 393 renal
SNB-75 CNS = system: SNB-75 CNS
SW-620 colon = system: SW-620 colon

Structure (SMILES)	TGI (COLO 205 colon) [µM]	TGI (HCT-15 colon) [µM]	TGI (OVCAR-3 ovarian) [µM]	TGI (OVCAR-5 ovarian) [µM]	TGI (U251 CNS) [µM]	TGI (UO-31 renal) [µM]	TGI (NCI-H522 lung) [µM]	TGI (RXF 393 renal) [µM]	TGI (SNB-75 CNS) [µM]	TGI (SW-620 colon) [µM]	GI50 (COLO 205 colon) [µM]	GI50 (OVCAR-3 ovarian) [µM]	GI50 (OVCAR-5 ovarian) [µM]	GI50 (SNB-75 CNS) [µM]	GI50 (SW-620 colon) [µM]	GI50 (U251 CNS) [µM]	GI50 (UO-31 renal) [µM]	GI50 (HCT-15 colon) [µM]	GI50 (NCI-H522 lung) [µM]	GI50 (RXF 393 renal) [µM]
O=c1[nH]nc(NCc2ccccc2)c2nnn(Cc3ccccc3)c12	> 100	> 100	> 100	> 100	> 100	> 100														
OCC1COc2cc(Cl)c(Cl)cc2O1 (configuration not stated)	> 10	> 10	> 10	> 10	> 10	> 10	> 10	> 10	> 10	> 10										
Cc1c[n+]2c3ccccc3c3ccccc3c2s1	26.1	> 100	12.9	12.8	12.3	14.5	15.7	0.559	12.1	> 75.5										
Cc1cccc(Br)[n+]1[O-]	> 100	> 100	> 100	> 100	> 100	> 100	> 100	> 100	> 100	> 100										
NCCSc1cc(O)c2c(c1N)C(=O)c1ccccc1C2=O		> 100	> 100	> 100	> 100	> 100	39.7	91.1	> 100	> 100										
COc1cc(C2c3cc4c(cc3[C@@H](Nc3cccc(CO)c3)C3COC(=O)[C@H]23)OCO4)cc(OC)c1O (some centres not stated)	3.72	2.86	13.4	11.5		10.4	3.52	6.05	> 24.7	> 41.3										
COc1cc(OC)cc(-c2ccc(-c3ccc(C(=N)N)cn3)o2)c1	3.27		3.46	3.2	3.02	3.06			2.85	3.25	1.62	1.89	1.74	1.48	1.67	1.62	1.59			
C=CCN1/C(=C(\C#N)c2nc3ccccc3[nH]2)Sc2c1nc[nH]c2=O	> 100	> 100	> 100	> 100	> 100	> 100	> 100	> 100	> 100	> 100										
CSCC[C@@H]1C(=O)N(C)[C@H](C(C)(C)C)N1C(=O)c1ccccc1	> 100	> 100	> 100	> 100	> 100	> 100	> 100	> 100	> 100	> 100										
CC(=O)c1[nH]c(NC(C)C)c(C(=S)Nc2ccccc2)c1N	> 100	> 100	> 100	> 100		77.7	31.7	50.3	> 100	> 100										
COc1cc2c3cc1Oc1c(O)c(OC)cc4c1C(Cc1ccc(O)c(c1)Oc1ccc(cc1)CC3N(C)CC2)N(C)CC4 (configuration not stated)	43.4	23.8	30.5	38.4	27.3	29.3	29.7	9.7	35.3	16.7										
Cc1[nH]c(=O)[nH]c(=O)c1/C=C/C(=O)O (tested in a mixture with another compound)	> 625	> 625	> 625	> 625	> 625	> 625	> 625	> 625	> 625	> 625										
COc1cc(C(=O)O[C@H](C(=O)NCCCNC(=O)[C@@H](OC(=O)c2cc(OC)cc3c(C)cccc23)[C@]2(C)CO2)[C@]2(C)CO2)c2cccc(C)c2c1	0.511	0.723		1.45	0.0206	> 100	< 0.01	< 0.01	0.381		0.0593		0.168		< 0.01	< 0.01	0.705	0.0444	< 0.01	< 0.01
N#CC(N=Nc1ccccc1C(=O)O)C(N)=O (configuration not stated)		> 100	> 100	> 100	> 100	> 100	> 100	> 100	> 100	> 100										
COc1nc2cccc(C(O)c3ccccc3)c2nc1-c1ccccc1 (configuration not stated)	16.3	26.5	20.4	54.8	16.8	68.7	27.2	14.6	> 100	16.6										
O=C1C=CC2OC(c3ccccc3)C(O)C2O1 (configuration not stated)	11	14.4	10.7	21.5	22.4	21.1	4	4.47	31	9.87										
COc1cccc(/C=N/NC(=O)CSCC(=O)N/N=C/c2cccc(OC)c2OC)c1OC	> 100	> 100	> 100	> 100	> 100	> 100	> 100	> 100	> 100	> 100										
CCC(C)C(N)C(=O)NC(CC(N)=O)C(=O)NC(CC(C)C)C(=O)NC(CCCCN)C(=O)NC(C)C(=O)NC(CC(C)C)C(=O)NC(C)C(=O)NC(C)C(=O)NC(CC(C)C)C(=O)NC(C)C(=O)NC(CCCCN)C(=O)NC(CCCCN)C(=O)NC(C(=O)NC(CC(C)C)C(N)=O)C(C)CC (configuration not stated)	32.1	31.8	22.6	28	30.9	32.1	33.3	21.7	14	37.4										
CC1(C)[C@@H]2CC[C@]1(C)[C@H](OC(=O)/C=C/c1ccccc1)C2	31	33.4	19.6	39.1	32.4	34	28.6	33.2	33.3	30.6										
O=c1c2ccccc2[nH]n1Cc1ccccc1	> 100	> 100	> 100	> 100	> 100	> 100	> 100	> 100	> 100	> 100										
